Assay results reported in ChEMBL document CHEMBL2401713, “Discovery of bufadienolides as a novel class of ClC-3 chloride channel activators with antitumor activities” (J Med Chem, 2013).
Activity calls are given as the source filed them. The calls are words filed in the database; no cut-off is given here.

Key:
[1] = biological target: T1, H(+)/Cl(-) exchange transporter 3 (Homo sapiens) (UniProt P51790); assay: Activation of ClC-3 in human CNE2Z cells assessed as increase in chloride current in outward and inward direction at +80mV holding potential at 1 uM by whole-cell patch clamp method; type: cell-based
T1 sequence (whole entry): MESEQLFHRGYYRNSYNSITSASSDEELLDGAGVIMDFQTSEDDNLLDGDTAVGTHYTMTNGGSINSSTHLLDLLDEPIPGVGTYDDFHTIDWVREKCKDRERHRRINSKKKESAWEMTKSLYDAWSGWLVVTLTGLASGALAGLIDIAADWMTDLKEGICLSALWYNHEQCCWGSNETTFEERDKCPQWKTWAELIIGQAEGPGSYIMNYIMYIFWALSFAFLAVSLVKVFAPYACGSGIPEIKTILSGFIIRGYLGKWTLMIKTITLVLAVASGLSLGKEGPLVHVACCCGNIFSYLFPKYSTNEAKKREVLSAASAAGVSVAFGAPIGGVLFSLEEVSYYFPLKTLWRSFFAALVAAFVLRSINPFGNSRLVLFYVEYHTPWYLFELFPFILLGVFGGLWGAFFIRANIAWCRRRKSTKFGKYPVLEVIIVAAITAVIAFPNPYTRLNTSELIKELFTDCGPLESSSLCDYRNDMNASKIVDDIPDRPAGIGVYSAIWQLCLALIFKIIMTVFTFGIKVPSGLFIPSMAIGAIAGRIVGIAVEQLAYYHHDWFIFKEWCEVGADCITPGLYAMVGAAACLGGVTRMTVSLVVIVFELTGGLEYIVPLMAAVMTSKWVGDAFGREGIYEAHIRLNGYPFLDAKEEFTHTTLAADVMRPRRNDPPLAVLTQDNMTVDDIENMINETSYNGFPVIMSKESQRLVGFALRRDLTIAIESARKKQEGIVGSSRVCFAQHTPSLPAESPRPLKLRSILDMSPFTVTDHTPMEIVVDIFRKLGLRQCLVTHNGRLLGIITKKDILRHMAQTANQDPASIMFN

[2] = system: H22; assay: Cytotoxicity against mouse H22 cells expressing mutated alpha-1 Na+/K+-ATPase assessed as growth inhibition after 48 hrs by MTT assay; type: functional, cell-based; settings: H22, 48 h
[3] = system: CCRF S-180; assay: Cytotoxicity against mouse S180 cells expressing mutated alpha-1 Na+/K+-ATPase assessed as growth inhibition after 48 hrs by MTT assay; type: functional, cell-based; settings: CCRF S-180, 48 h
[4] = Cell cycle arrest in human CNE2Z cells assessed as accumulation at sub-G1 phase at 50 uM after 24 hrs by propidium iodide staining-based flow cytometric analysis in presence of ClC-3 siRNA (reference value: 1.3%); type: functional
[5] = Cell cycle arrest in human CNE2Z cells assessed as accumulation at sub-G1 phase at 50 uM after 24 hrs by propidium iodide staining-based flow cytometric analysis in presence of NPPB (reference value: 2%); type: functional
[6] = Cell cycle arrest in human CNE2Z cells assessed as accumulation at sub-G1 phase at 50 uM after 24 hrs by propidium iodide staining-based flow cytometric analysis in presence of tamoxifen (reference value: 1.5%); type: functional
[7] = Cell cycle arrest in human CNE2Z cells assessed as accumulation at sub-G1 phase at 50 uM after 24 hrs by propidium iodide staining-based flow cytometric analysis (reference value: 1.1%); type: functional
[8] = system: CNE2Z; assay: Induction of apoptosis in human CNE2Z cells assessed as activation of caspase-8 at 1 to 50 uM after 24 hrs by luminometric analysis; type: functional, cell-based
[9] = system: CNE2Z; assay: Induction of apoptosis in human CNE2Z cells assessed as activation of caspase-3/7 at 1 to 50 uM after 24 hrs by luminometric analysis; type: functional, cell-based
[10] = system: CNE2Z; assay: Induction of apoptosis in human CNE2Z cells assessed as increase in apoptotic cell level at 1 to 10 uM after 24 hrs by annexin V-FITC/propidium iodide staining-based flow cytometric analysis; type: functional
[11] = Cell cycle arrest in human CNE2Z cells assessed as accumulation at sub-G1 phase at 5 uM after 24 hrs by propidium iodide staining-based flow cytometric analysis in presence of ClC-3 siRNA (reference value: 1.3%); type: functional
[12] = Cell cycle arrest in human CNE2Z cells assessed as accumulation at sub-G1 phase at 1 uM after 24 hrs by propidium iodide staining-based flow cytometric analysis in presence of ClC-3 siRNA (reference value: 1.3%); type: functional
[13] = Cell cycle arrest in human CNE2Z cells assessed as accumulation at sub-G1 phase at 5 uM after 24 hrs by propidium iodide staining-based flow cytometric analysis in presence of NPPB (reference value: 2%); type: functional
[14] = Cell cycle arrest in human CNE2Z cells assessed as accumulation at sub-G1 phase at 1 uM after 24 hrs by propidium iodide staining-based flow cytometric analysis in presence of NPPB (reference value: 2%); type: functional
[15] = Cell cycle arrest in human CNE2Z cells assessed as accumulation at sub-G1 phase at 5 uM after 24 hrs by propidium iodide staining-based flow cytometric analysis in presence of tamoxifen (reference value: 1.5%); type: functional
[16] = Cell cycle arrest in human CNE2Z cells assessed as accumulation at sub-G1 phase at 1 uM after 24 hrs by propidium iodide staining-based flow cytometric analysis in presence of tamoxifen (reference value: 1.5%); type: functional
[17] = Cell cycle arrest in human CNE2Z cells assessed as accumulation at sub-G1 phase at 5 uM after 24 hrs by propidium iodide staining-based flow cytometric analysis (reference value: 1.1%); type: functional
[18] = Upregulation of ClC-3 protein expression in human CNE2Z cells after 24 hrs by Western blot analysis; type: functional, cell-based
[19] = biological target: T1, H(+)/Cl(-) exchange transporter 3 (Homo sapiens); assay: Activation of ClC-3 in human CNE2Z cells assessed as increase in chloride current density at +80mV holding potential at 1 uM by whole-cell patch clamp method relative to vehicle-treated control; type: cell-based
[20] = system: HepG2; assay: Cytotoxicity against adriamycin-resistant human HepG2 cells assessed as growth inhibition after 48 hrs by MTT assay; type: functional, cell-based; settings: HepG2, 48 h
[21] = Cytotoxicity against human CNE2Z cells assessed as growth inhibition after 48 hrs by MTT assay; type: functional, cell-based
[22] = system: HepG2; assay: Cytotoxicity against human HepG2 cells assessed as growth inhibition after 48 hrs by MTT assay; type: functional, cell-based; settings: HepG2, 48 h
[23] = Cytotoxicity against human CNE1 cells assessed as growth inhibition after 48 hrs by MTT assay; type: functional, cell-based; settings: CNE
[24] = Cell cycle arrest in human CNE2Z cells assessed as accumulation at sub-G1 phase at 1 uM after 24 hrs by propidium iodide staining-based flow cytometric analysis (reference value: 1.1%); type: functional
[25] = system: CNE2Z; assay: Induction of apoptosis in human CNE2Z cells assessed as expression of caspase-3 at 1 uM after 24 hrs by annexin V-FITC/propidium iodide staining-based flow cytometric analysis in presence of tamoxifen, NPPB, ClC-3 siRNA; type: functional, cell-based
[26] = system: CNE2Z; assay: Induction of apoptosis in human CNE2Z cells assessed as induction of PARP cleavage at 1 uM after 24 hrs by annexin V-FITC/propidium iodide staining-based flow cytometric analysis in presence of tamoxifen, NPPB, ClC-3 siRNA; type: functional, cell-based
[27] = system: CNE2Z; assay: Induction of apoptosis in human CNE2Z cells assessed as increase in apoptotic cell level at 1 to 10 uM after 24 hrs by annexin V-FITC/propidium iodide staining-based flow cytometric analysis in presence of tamoxifen, NPPB, ClC-3 siRNA; type: functional
[28] = system: CNE2Z; assay: Induction of apoptosis in human CNE2Z cells assessed as activation of caspase-3 at 1 uM after 24 hrs by annexin V-FITC/propidium iodide staining-based flow cytometric analysis; type: functional, cell-based
[29] = system: CNE2Z; assay: Induction of apoptosis in human CNE2Z cells assessed as induction of PARP cleavage at 1 uM after 24 hrs by annexin V-FITC/propidium iodide staining-based flow cytometric analysis; type: functional, cell-based
[30] = Cell cycle arrest in human CNE2Z cells assessed as accumulation at sub-G1 phase at 10 uM after 24 hrs by propidium iodide staining-based flow cytometric analysis in presence of ClC-3 siRNA (reference value: 1.3%); type: functional
[31] = Cell cycle arrest in human CNE2Z cells assessed as accumulation at sub-G1 phase at 10 uM after 24 hrs by propidium iodide staining-based flow cytometric analysis in presence of NPPB (reference value: 2%); type: functional
[32] = Cell cycle arrest in human CNE2Z cells assessed as accumulation at sub-G1 phase at 10 uM after 24 hrs by propidium iodide staining-based flow cytometric analysis in presence of tamoxifen (reference value: 1.5%); type: functional
[33] = Cell cycle arrest in human CNE2Z cells assessed as accumulation at sub-G1 phase at 10 uM after 24 hrs by propidium iodide staining-based flow cytometric analysis (reference value: 1.1%); type: functional
[34] = Cytotoxicity against SV40-transformed human NP69 cells assessed as cell viability after 48 hrs by MTT assay; type: cell-based; settings: NP69, 48 h

Structure (SMILES)	IC50 [2] [µM]	IC50 [3] [µM]	Activity [19]	IC50 [20] [µM]	IC50 [21] [µM]	IC50 [22] [µM]	IC50 [23] [µM]	further results
CC(=O)O[C@@H]1C[C@H](c2ccc(=O)oc2)[C@@]2(C)CC[C@H]3[C@@H](CC[C@@H]4C[C@@H](O)CC[C@@]43C)[C@@]12O	> 50	> 50	inactive	> 100	> 100	> 100	> 100	Activity [1]: inactive; Activity [4]: 3.4%; Activity [5]: 3.8%; Activity [6]: 3.9%; Activity [7]: 4%; Activity [8]: inactive; Activity [9]: inactive; Activity [10]: inactive; Activity [11]: 3.3%; Activity [12]: 3%; Activity [13]: 3.5%; Activity [14]: 2.8%; Activity [15]: 3.5%; Activity [16]: 2.2%; Activity [17]: 3.1%; Activity [18]: inactive; Activity [24]: 1.3%
C[C@]12CC[C@H](O)C[C@H]1CC[C@@H]1[C@@H]2CC[C@]2(C)[C@@H](c3ccc(=O)oc3)[C@@H](O)C[C@]12O [DESACETYLBUFOTALIN]	> 50	> 50	Active	2.6	1.77	3.58	4.89	–
C[C@]12CC[C@H]3[C@@H](CC[C@@H]4C[C@@H](O)CC[C@@]43C=O)[C@]13O[C@@H]3C[C@@H]2c1ccc(=O)oc1	> 50	> 50	–	> 100	26.5	> 100	15.2	–
CC(=O)O[C@H]1[C@H]2O[C@]23[C@@H]2CC[C@@H]4C[C@@H](O)CC[C@]4(C)[C@H]2CC[C@]3(C)[C@H]1c1ccc(=O)oc1 [CINOBUFAGIN]	> 50	> 50	–	1.71	0.39	2.35	0.31	–
C[C@]12CC[C@H](O)C[C@H]1CC[C@@H]1[C@@H]2CC[C@]2(C)[C@@H](c3ccc(=O)oc3)CC[C@]12O [BUFALIN]	> 50	> 50	–	0.345	0.46	0.589	0.279	Activity [25]: inactive; Activity [26]: inactive; Activity [27]: inactive; Activity [28]: Active; Activity [29]: Active; Activity [10]: 35.2%; Activity [30]: 40.9%; Activity [11]: 31.7%; Activity [12]: 21.5%; Activity [31]: 42.7%; Activity [13]: 33.9%; Activity [14]: 23.1%; Activity [32]: 43.9%; Activity [15]: 36.9%; Activity [16]: 26.5%; Activity [33]: 59.1%; Activity [17]: 50.5%; Activity [18]: Dose-dependent effect; IC50 [34]: > 25 µM; Activity [24]: 39.1%
COC(=O)CCCCCCC(=O)O[C@H]1CC[C@@]2(C)[C@H](CC[C@@H]3[C@@H]2CC[C@]2(C)[C@@H](c4ccc(=O)oc4)CC[C@]32O)C1	> 50	> 50	Active	2.38	2.87	3.18	1.72	–
C[C@]12CC[C@H](OC(=O)CCCCCCC(=O)O)C[C@H]1CC[C@@H]1[C@@H]2CC[C@]2(C)[C@@H](c3ccc(=O)oc3)CC[C@]12O	> 50	> 50	–	> 100	7.38	> 100	4.99	–
